Here are results for one molecule from patent US12492208B2, “Crystal of pyrimidine compound” (TAIHO PHARMACEUTICAL CO., LTD., priority 2020, dated 2025).

SMILES strings stand for the structures.

In series [1] the test system is SK-BR-3 cells. The series can be described thus: Growth inhibitory activity against HER2 expressing cell line. In kind it is cell-based. The following applies: Homo sapiens, SK-BR-3, 72 h; 3 days, CellTiter-Glo 2.0. How it is done:
SK-BR-3 cells as a HER2 overexpressing human breast cancer cell line were suspended in a McCoy's 5a medium (manufactured by Life Technologies) supplemented with 10% fetal bovine serum. The cell suspension was seeded in each well of a 384-well flat-bottom microplate, and was then cultured in a 5% carbon dioxide gas-containing culture vessel at 37° C. for 1 day. Thereafter, the compound (I) obtained according to the method in Synthesis Example 1 was dissolved in DMSO, and the compound was diluted to 500 times the final concentration in DMSO. The compound in the DMSO solution was diluted with DMSO solution or the medium used in the suspension of the cells, and the obtained solution was then added to each well of the culture plate so that the final concentration of DMSO was 0.2%. The obtained mixture was further cultured in the 5% carbon dioxide gas-containing culture vessel at 37° C. for 3 days. After completion of the culture for 3 days in the presence of the compound, the cells were counted using CellTiter-Glo 2.0 (manufactured by Promega), and the growth inhibition percentage was then calculated according to the following equation. The concentration of the compound, in which the growth of the cells can be inhibited by 50%, was defined as IC50 (nM). […]
Background: In ATP-based viability assays light output follows the ATP content of the culture.

Series [2] has as its system Luciferase gene-introduced HER2 expressing cell line (NCI-N87-Luc). Nature of the series: Antitumor effect confirmation test (in vivo) on direct brain transplantation models. Also noted: species or system nude mouse (BALB/cAJcl-nu/nu). The following applies: 25 mg/kg/day oral, 21 days. Here is the method: In order to confirm the antitumor effects of a test compound on direct brain transplantation models, NCI-N87-Luc, which was obtained by introducing a luciferase gene into NCI-N87 that was a human stomach cancer tumor cell line purchased from American Type Culture Collection, was used. The NCI-N87-Luc was added into a 10% fetal bovine serum (FBS)-containing RPMI-1640 medium (supplemented with 4.5 g/L glucose, 10 mM HEPES, and 1 mM sodium pyruvate) (Wako Pure Chemical Industries, Ltd.), and this cell line was then cultured in a 5% CO2 incubator at 37° C.
The NCI-N87-Luc cells were re-suspended in PBS in a concentration of 6.25×10^7 cells/mL. […]
As a reference of the amount of brain tumor, approximately 3 weeks after the transplantation, Total Flux (Photon/sec) was measured in all of the survival cases, using IVIS (PerkinElmer, Inc., model: Lumina II). […]
The value obtained by logarithmic transformation (Log 10) of the total flux on Day 22 in each group was analyzed by a significance test. […] A body weight change percentage (Body weight change; BWCn) from the body weight on the n^th day (BWn) was calculated according to the following equation: BWCn (%)=[(body weight on n^th day)−(body weight on grouping day)]/[(body weight on grouping day)]×100.

With `C=CC(=O)N1C[C@H](n2c(C#CC3CC3)c(C(=O)N[C@H](C)c3ccccc3)c3c(N)ncnc32)C[C@@H]1C` [compound (I), 7-((3R,5S)-1-acryloyl-5-methylpyrrolidin-3-yl)-4-amino-6-(cyclopropylethynyl)-N—((R)-1-phenylethyl)-7H-pyrrolo[2,3-d]pyrimidine-5-carboxamide], the midpoint of inhibition in series [1], the IC50, lay at 6.6 nM. Also, the “body weight reduction of −20% or more” value in series [2] (all mice) is “not observed”. Also, the “Log 10 of the total flux on Day 22 versus control group” value in series [2] (once a day, significance level (both sides) 5%) is given as “statistically significantly lower”.
